For assay [1], the target named is human small intestinal UPase enzyme (Homo sapiens (Human), UniProt Q16831). The experiment in a line: UPase inhibition in human small intestinal tissue homogenate (HPLC of uracil). The settings on record: 5 mM uridine, 37° C., pH 7.3. It counts as biochemical. The procedure: A range of TK-112690 doses were studied for the their ability to prevent metabolic breakdown of uridine through the in vitro inhibition of mouse and human small intestinal UPase enzyme. UPase activity was determined by HPLC analysis using UV detection of uracil concentration (UPase catabolizes uridine into uracil and ribose-1-phosphate). The UPase enzyme material was prepared from homogenized mouse and human being small intestinal tissue. TK-112690 was dissolved in water (50 mg/ml) and analyzed for UPase inhibition in aqueous solution containing 5 mM uridine, 0.01 M Tris, 0.01 M phosphate, 1 mM EDTA, and 1 mM DTT. Reactions were performed at 37° C. at pH of 7.3.
[…] inhibition of mouse and human UPase was determined from measurements of uracil determined in homogenates by reverse phase HPLC using UV detection. […]
The aim of this study was to evaluate TK-112690 in vivo as an inhibitor of uridine phosphorylase (UPase) enzyme activity. […] Detection of UPase activity was determined by HPLC analysis using UV detection of uracil concentration (UPase catabolizes uridine into uracil and ribose-1-phosphate).
The UPase enzyme material was prepared from homogenized mouse and human being small intestinal tissue. TK-112690 was dissolved in water (50 mg/ml) and analyzed for UPase inhibition in aqueous solution containing 5 mM uridine, 0.01 M Tris, 0.01 M phosphate, 1 mM EDTA, and 1 mM DTT. […]

Assay [2] is described as follows: Mouse Study I (protection from MTX-induced weight loss, LPS/MTX model). It counts as in vivo, C57BL/6 mice. The following applies: 10 or 30 mg/kg ip 3 hr before and after MTX, LPS+MTX; p<0.004 (10 mg/kg), p<0.0005 (30 mg/kg) vs LPS+MTX. The procedure:
C57BL/6 mice (10 animals/treatment group) were dosed on Day 1 with LPS (5 μg, i.p.). On Day 2, the animals were treated with 200 mg/kg MTX+10 or 30 mg/kg TK-112690 3 hr before and 3 hr after the MTX treatment. On Day 3, the animals were dosed MTX 100 mg/kg+10 or 30 mg/kg TK±3 hr. On day 8, the Day 8-Day 1 weight was determined and results subject to ANOVA. Group 1=saline alone, Group 2=MTX alone, Group 3=LPS alone, Group 4=MTX+LPS, Group 5=10 mg/kg TK-112690+MTX+LPS or Group 6=30 mg/kg TK-112690+MTX+LPS.
This mouse model is modified from a published procedure (de Koning et al., Int Immunol 18: 941 (2006)). Mice are treated on day one with a single intraperitoneal (ip) dose of lipopolysaccharide (LPS), followed by two consecutive days with 200 and 100 mg/kg ip methotrexate, respectively. Controls include saline alone for days 1, 2, and 3, saline on day 1 plus MTX on days 2 and 3 and LPS on day one with saline injection on days 2 and 3. Experimental groups are given LPS on day one and 10 or 30 mg/kg, TK-112690, a representative 2,2′-anhydropyrimidine test article, ip 3 hours before, and 3 hours after, methotrexate injection on days 2 and 3. Animal weights are measured every day after the first injection with experiment termination five days after the second methotrexate injection (day 8). Weight loss is representative of MTX-induced toxicity, and one aspect of MTX-induced mucositis. […]

Molecules are shown by their SMILES.

human small intestinal UPase enzyme, sequence (Q16831 whole entry): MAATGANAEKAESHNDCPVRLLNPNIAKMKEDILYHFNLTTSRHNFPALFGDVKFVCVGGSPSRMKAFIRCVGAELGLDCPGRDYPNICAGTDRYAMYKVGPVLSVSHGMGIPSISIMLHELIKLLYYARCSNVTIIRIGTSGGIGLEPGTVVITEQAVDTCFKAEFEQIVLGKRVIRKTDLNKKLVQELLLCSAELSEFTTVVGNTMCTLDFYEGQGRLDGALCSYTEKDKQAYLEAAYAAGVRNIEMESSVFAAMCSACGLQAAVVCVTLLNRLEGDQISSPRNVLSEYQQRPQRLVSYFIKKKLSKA

On to `Cc1cn2c(nc1=O)O[C@H]1[C@H](O)[C@@H](CO)O[C@H]12` [TK-112690, 2,2′-anhydro-5-methyluridine], for which it took 20 µM to reach half-maximal inhibition in assay [1] (IC50). The “protection from MTX-induced weight loss (Day 8-Day 1 mean weight change)” value in assay [2] was “highly significant”.

(Values after patent US8853227B2, “Methotrexate adjuvants to reduce toxicity and methods for using the same” (Tosk, Incorporated, priority 2008, dated 2014).)
